Test results: patent publication US12454550B2, “Compositions and methods for bioorthogonal surface coating” (Rutgers, The State University of New Jersey, priority 2021, dated 2025)
Converted amounts (≈) assume the structure as drawn. Where two headings read alike, the source gives them in different places.

What was measured:
[1] = tested on: S. aureus biofilm; test: Biofilm microscopy (PI/SYTO 9, CLSM); assay type: cell-based; conditions: coated microscopy dishes, PI/SYTO 9 staining
Experimental: 200 μL of freshly prepared coating solution containing 10 mM DOPA-Tet and 2500 U/mL tyrosinase in PBS was added to a glass bottom culture dush. The dish was incubated at room temperature for 6 hours, during which a coating was formed. […] S. aureus was grown overnight in TSB, then diluted 1:100 in TSB containing 3% glucose. 300 μL of the dilute bacteria was added to the microscope dishes, which were then placed in a 37° C. incubator. The samples were incubated for 72 hours, with the media being topped up every day to account for evaporation. The media was decanted and then the dishes were washed with 200 μL of 0.9% NaCl, followed by a 1-hour incubation at room temperature with 250 μL of TSB containing Syto9 (10 μM) and PI (10 μM). The dyes were then decanted and the samples were washed again with saline. Finally, 150 μL of HBSS was added, and the dishes were imaged on a Leica SP8 confocal microscope.

[2] = Colorimetric assay using GOx/HRP on DOPA-Tet coated microcentrifuge tubes; assay type: biochemical; conditions: tubes coated with 10 mM DOPA-Tet, treated with enzymes and washed; 1 mM D-glucose and 1 mM ABTS, 1 hour
Experimental: TCO-conjugated GOx (GOx-TCO) and HRP (HRP-TCO) were prepared as described above. 0.2 mL microcentrifuge tubes were coated with 10 mM DOPA-Tet. The tubes were washed with PBS and sonicated to help remove any loose aggregates. The tubes were grafted with either 0.2 mM GOx-TCO and 0.2 mM HRP-TCO, or 0.2 mM GOx and 0.2 mM HRP. […] Absorbance at 405 nm was measured on a spectrophotometer (NanoDrop One). Three replicates of each set of enzymes, TCO-conjugated or native, were prepared and measured.

[3] = Coating stability at various pH; assay type: physicochemical; conditions: coated glass vials, 5 days at 37° C.
Experimental: Six 4 mL glass vials (VWR International) were coated with 10 mM DOPA-Tet and incubated for 5 days at 37° C. in 1 mL of either 50 mM MES pH 4.5 (Millipore-Sigma), 100 mM IVIES pH 6.0, PBS, TBS 8.5, 100 mM NaHCO3 pH 9.5 (Millipore-Sigma) or 10% DMSO (Millipore-Sigma) in PBS. After incubation, samples were rinsed with Milli-Q water, dried, and imaged.

[4] = tested on: S. aureus; test: Planktonic bacterial growth inhibition at the surface (PrestoBlue); assay type: cell-based; conditions: coated 96-well plate, incubated overnight, resazurin readout
Experimental: The wells of a non-treated clear 96 well culture plate were either left uncoated or coated with 10 mM DOPA-Tet and then incubated with either vancomycin-TCO, vancomycin, or PBS. […] 100 μL of culture was added to the wells and the plate was covered and incubated at 37° C. for 18 hours, after which 10 μL of PrestoBlue™ was added to each well. After 1 hour incubation, the media was transferred to clean wells and absorbance at 570 nm was recorded using a plate reader.

[5] = Colorimetric assay using ALP on DOPA-Tet coated microcentrifuge tubes; assay type: biochemical; conditions: tubes coated with 10 mM DOPA-Tet, treated with enzyme and washed; 1 mg/mL p-NPP, 1 hour, room temperature
Experimental: For the colorimetric assay using ALP, TBS was chosen as the buffer for washing and testing, because the high concentration of phosphate in PBS could affect the phosphatase activity of ALP. TCO-conjugated ALP (ALP-TCO) was prepared as described elsewhere herein. 0.2 mL microcentrifuge tubes (Bio-Rad Laboratories) were coated with 10 mM DOPA-Tet. The tubes were washed thoroughly with TBS 7.5 and sonicated to remove any loose aggregates. The tubes were grafted with either 0.2 mM ALP-TCO or 0.2 mM ALP, both in TBS 7.5. 50 μL of 1 mg/mL p-NPP in TBS 8.5 was added to each tube and incubated at room temperature for 1 hour. Absorbance at 405 nm was measured on a spectrophotometer (NanoDrop One). Three replicates for each grafted molecule, ALP-TCO or ALP, were prepared and measured.

[6] = Coating stability in human serum, ALP activity on p-NPP afterwards; assay type: biochemical; conditions: DOPA-Tet coated glass vial, 5 days at 37° C. in human serum, then 1 mg/mL p-NPP 1 hour
Experimental: Two additional 4 mL glass vials were prepared and incubated in human serum. Both samples were coated with 10 mM DOPA-Tet, and one was grafted with 0.2 mM ALP-TCO. Both samples were incubated in 1 mL of human serum from clotted whole blood (Millipore-Sigma) for 5 days at 37° C. After incubation, both samples were washed with PBS and 1 mL of 1 mg/mL p-NPP was added. After incubation for 1 hour at room temperature, both samples were imaged and their absorbance at 405 nm was measured on a spectrophotometer (NanoDrop One).

[7] = tested on: S. aureus biofilm; test: Biofilm crystal violet assay; assay type: cell-based; conditions: coated surfaces incubated with S. aureus for 72 hours
Experimental: 100 μL of freshly prepared coating solution containing 10 mM DOPATet and 2500 U/mL tyrosinase in PBS was added to the wells of a 96-well plate and incubated at room temperature for 6 hours. […] As described elsewhere herein, S. aureus was grown overnight in TSB, then diluted 1:100 in TSB containing 3% glucose. 300 μL of the dilute bacteria was added to the coated well plate, which was then incubated at 37° C. for 72 hours. After incubation the media was decanted, and the plate was air dried for 5 minutes. 200 μL of 0.9% NaCl in sterile water was gently added to the wells, then decanted, and air dried for 5 minutes. The wells were washed twice more with 0.9% NaCl, and after the final drying, 200 μL methanol was added to each well. The plate was left at room temperature for 15 minutes, then the methanol was decanted and the plate air dried for 5 minutes. 100 μL of 3% crystal violet in sterile water was added to the wells and incubated at room temperature for 20 minutes. The dye was decanted, and the plate air dried. The wells were washed three times with 0.9% NaCl as above. After the final air drying, 150 μL of methanol was added to the wells, and mixed to allow for dissolution of the crystal violet. The dye solution was then decanted and diluted 1:10 in methanol, then the absorbance at 590 nm was recorded.

[8] = tested on: S. aureus; test: Minimum Inhibitory Concentration (MIC) assay; assay type: cell-based; conditions: Staphylococcus aureus; in solution, 37° C., 18 to 24 h, n=3
Experimental: A glycerol stock of S. aureus was struck on a tryptic soy agar plate and incubated overnight at 37° C. Single colonies were then picked and diluted into tryptic soy broth (TSB) and left to grow overnight. Next, the culture was diluted approximately 40-fold into fresh TSB and grown to mid-log phase (OD600=0.4 to 0.8). 5 mg/mL stock solutions of Vancomycin-TCO and vancomycin in DMSO were serially diluted two-fold with TBS across the wells of a non-treated 96-well plate, with concentrations ranging from 0.0625 to 128 μg/mL. The mid-log phase cultures were diluted to a final concentration of 5×10^5 colony forming units (CFU)/mL in TSB then 50 μL was added to each antimicrobial-containing well, giving a final antimicrobial concentration range of 0.031 to 64 μg/mL. All the plates were covered and incubated at 37° C. for 18 to 24 h. The MIC was defined as the lowest compound concentration at which no bacterial growth was visible (n=3).

[9] = Stability of grafted enzymes after repeated use; assay type: biochemical; conditions: enzymes grafted on DOPA-Tet coated tubes, repeated substrate and buffer incubations with washes
Experimental: Eight 0.2 mL microcentrifuge tubes were coated with 50 μL of 10 mM DOPA-Tet. The tubes were washed thoroughly with TBS (pH 7.5). Three tubes each were grafted with 50 μL of either 0.1 mM ALP-TCO or 0.1 mM GOx-TCO and 0.1 mM HRP-TCO. The two remaining coated tubes were not grafted with any enzymes. The tubes were washed thoroughly with TBS (pH 7.5). 25 μL of 1 mg/mL p-NPP in TBS (pH 8.5) was added to the ALP-grafted tubes and 25 μL 1 mM ABTS and 1 mM D-glucose in PBS (pH 7.4) was added to the GOX/HRP grafted tubes. Each substrate solution was also added to one of the tubes that was not grafted (for controls). […] Absorbance at 405 nm was measured on a spectrophotometer (Thermo Scientific NanoDropOneC). All tubes were then thoroughly washed with TBS (pH 7.5). Then TBS (pH 8.5) was added to the ALP-grafted tubes and PBS (pH 7.4) was added to the GOX/HRP grafted tubes. Each buffer solution was also added to one of the tubes that was not grafted. […] The buffer solutions were then removed from the tubes. This process of incubating with substrate and then buffer solutions was repeated for all tubes 9 more times, for a total of 10 cycles.

[10] = Michaelis-Menten kinetics of native and TCO-conjugated ALP (UV-Vis, 405 nm); assay type: biochemical; conditions: 5 nM enzyme, p-NPP in TBS 8.5, room temperature
Experimental: Both assays produce an increase in absorbance at 405 nm, the evolution of which at room temperature was measured on a microplate reader (SpectraMax iD3) over 1 hour. […] These trials were omitted from data analysis. Velocities were estimated by linear regression, and Michaelis-Menten parameters were calculated using both Lineweaver-Burk plots and non-linear least squares regression. R-squared values for all regressions were above 0.95 with the vast majority being above 0.98.

Molecule	biofilm formation (CLSM) [1]	activity (absorbance at 405 nm) [2]	coating stability ([3]; 10% DMSO in PBS)	coating stability ([3]; buffered from pH 4.5 to 8.5)	coating stability ([3]; pH 9.5)	growth of S. aureus (planktonic) [4]	activity (absorbance at 405 nm) [5]	ALP activity on p-NPP after incubation in human serum [6]	biofilm formation (crystal violet, absorbance at 590 nm) [7]	MIC [8]	loss of activity on repeated use (absorbance at 405 nm) [9]	Km ([10]; Lineweaver-Burk plots, read-out: Km by LB)	Km ([10]; non-linear least squares regression, read-out: Km by nls)
Cc1nnc(-c2ccc(OCCOCCOCCOCCNC(=O)C(N)Cc3ccc(O)c(O)c3)cc2)nn1 (racemic) [DOPA-Tet, (±)-2-amino-3-(3,4-dihydroxyphenyl)-N-(2-(2-(2-(2-(4-(6-methyl-1,2,4,5-tetrazin-3-yl)phenoxy)ethoxy)ethoxy)ethoxy)ethyl)propanamide]	no biofilm was observed	−0.07 OD	slightly solubilized	No degradation of the coating was observed	delamination and degradation of the coating were observed	not antimicrobial	0.05 OD	did not show any visually detectable activity	successfully inhibited biofilm formation				
CN[C@H](CC(C)C)C(=O)N[C@H]1C(=O)N[C@@H](CC(N)=O)C(=O)N[C@H]2C(=O)N[C@H]3C(=O)N[C@H](C(=O)N[C@H](C(=O)NCCOCCOCCOCCOCCOCCOCCOCCOCCNC(=O)OC4CC/C=C/CCC4)c4cc(O)cc(O)c4-c4cc3ccc4O)[C@H](O)c3ccc(c(Cl)c3)Oc3cc2cc(c3O[C@@H]2O[C@H](CO)[C@@H](O)[C@H](O)[C@H]2O[C@H]2C[C@](C)(N)[C@H](O)[C@H](C)O2)Oc2ccc(cc2Cl)[C@H]1O (some centres unmarked) [vancomycin-TCO]										16 µg/mL (≈ 8.02 µM)			
ALP: alkaline phosphatase, native enzyme (SEQ ID NO:2)							1.66 OD				little loss of activity over 10 cycles	281 µM	207 µM
